Test results: patent publication US9161944B2, “Method for preventing cancer metastasis” (INSERM (INSTITUT NATIONAL DE LA SANTE ET DE LA SANTE ET DE …, priority 2010, dated 2015)

Columns and labels:
MCF-10A [1] = assay: Transwell motility of non cancerous cells; assay type: cell-based, human; conditions: 10 nM to 1 μM, FIG. 6C
Experimental: (§1) FIG. 6: JPH1701 (or Ohmline) activity on cell motility on cancerous MDA-MB-435s cells and on non cancerous MCF-10A cells. The motility was tested by transwell assay. Additionally, viability tests were performed using MTT assays. FIG. 6A-B) JPH1701 (the concentrations of JPH1701, for the FIG. 6A, are 0 (control condition), 10 nM, 100 nM, 300 nM and 1 μM) reduces motility (FIG. 6A) of MDA-MB-435s wild type (WT) cells from 10 nM without affecting viability (FIG. 6B) except at 10 μM. FIG. 6C-D) MCF-10A motility (FIG. 6C) and viability (FIG. 6D) are not affected by JPH1701 (the concentrations of JPH1701, for the FIG. 6C, are 0 (control condition), 10 nM, 100 nM, 300 nM and 1 μM). FIG. 6E-F) Effect on SK3 dependent motility.
(§2) The immortalized normal mammary epithelial cell lines MCF-10A and 184A1 were cultured in DMEM/Ham's F-12, 1:1 mix containing 5% horse serum (Invitrogen Life Technologies, France), insulin (10 μg/ml), epidermal growth factor (20 ng/ml), hydrocortisone (0.5 μg/ml) and, respectively for MCF-10A and 184A1, 100 ng/ml cholera toxin and 1 ng/ml cholera toxin plus 5 μg/ml transferrin.

MCF-10A [2] = assay: Viability (MTT) of non cancerous cells; assay type: cell-based, human; conditions: FIG. 6D
Experimental: as §1, §2

MDA-MB-435s shSK3 = assay: Transwell motility of cells not expressing SK3; assay type: cell-based, human; conditions: 10 nM to 300 nM; non-specific effect at 1 μM, FIG. 6F
Experimental: as §1
MDA-MB-435s and HEK293 cells were transduced with lentiviral vector at multiplicities of infection (MOI) of 1 to 3 in the presence of polybrene (4 μg/ml, Sigma). The transduction rate for MDA-MB-435s determined by counting GFP cells was close to 90%. In order to selection one clone of HEK293-SK3/KCa2.3 limit dilution were realized and each clone was tested in patch clamp with apamin and edelfosine and by western blotting in order to control expression of SK3/KCa2.3 channel.
At least three independent experiments were each performed in triplicate.

[3] = system: endogenously HEK potassium current; assay: Endogenous HEK potassium current (patch clamp); assay type: cell-based; conditions: applied concentration range; data not shown
Experimental: Whatever the concentration tested approximately 40 sec was needed to reduce 50% of the amplitude of the current. […] Increasing intracellular calcium concentration by the addition of 5 μM A23187 totally reversed the effect of JPH1701 (data not shown).

SKCa channel = assay: 125I-apamin binding, membrane homogenates of cerebral cortex; conditions: 0.3 and 2 μM, FIG. 8E
Experimental: FIG. 8: Effect of JPH1701 on SK3 channel activity. […] Results are expressed as the mean±S.E.M. FIG. 8C) Histograms showing the effect of racemic hexadecyloxy-2-O-methyl-sn-glycerol-lactose (JPH 1701 or Ohmline, i.e: JPH1701 in the example) mixture and of both enantiomers (R-JPH1701 and S-JPH1701) on SK3 activity. The percentages of inhibition represent the ratio (SK3 current amplitude and chord conductance (in the presence of 10 μM JPH1701)/SK3 current amplitude in control experiments). Black bars show current at 0 mV and grey bars indicate the chord conductance. FIG. 8D) Dose-response effect of the form + of JPH1701 (concentrations: 0 (control), 0.3, 1 and 10 μM). Columns, mean, bars, SEM, (5 cells for racemic mix and 4 cells for + and − forms). FIG. 8E) Histogram showing the % of control specific binding of ^125I-Apamin ([…]) to SKCa channel obtained from membrane homogenates of cerebral cortex by 0.3 and 2 μM JPH1701.
To investigate whether JPH1701 interacts with the apamin binding site, 125I-apamin binding studies were performed.

MDA-MB-435s = assay: Cytotoxicity / cell viability (MTT, tetrazolium salt reduction)
SK3/KCa2.3 channel = SK3/KCa2.3 channel (Homo sapiens, UniProt Q9UGI6); assay: Whole-cell patch clamp, apamin-sensitive current in MDA-MB-435s; assay type: cell-based; set-up: effect of JPH1701 on the SK3 activity in MDA-MB-435s cells using patch clamp technique; endogenous in cells; host or cells: MDA-MB-435s wild type
Experimental: FIG. 7: Effects of a 24 hours application of JPH1701 at 1 μM on whole cell current in MDA-MB-435s Wild Type (WT). FIG. 7A) Illustrations of currents recorded on MDA-MD-435s. On the top, current were recorded on MDA-MB-435s in control condition. At the bottom, current were representative of a cell which was treated with JPH1701 1 μM during 24 hours. FIG. 7B) Effects of JPH1701 on apamin-sensitive currents. Cells were incubated with JHP1701 at 1 μM during 24 hours then currents were measured in absence or with apamin, a specific blocker of the SK3/KCa2.3 channel. Histograms show the amplitude of currents inhibited by apamin. After JPH1701 treatment apamin-sensitive current were abolished. […]
Briefly, experiments were conducted using Axopatch 200B patch-clamp amplifier (Axon Instrument) and data, digitized with 1322-A Digidata converter (Axon Instrument), were stored on a computer using Clampex of pClamp 9.2 software (Axon Instru-ment). The patch-clamp data was analyzed using both Clampfit 9.2 and Origin 7.0 software (Microcal Inc., Northampton, Mass., USA).
The pipette solution for the whole-cell recordings contained (in mM): K-glutamate 125, KCl 20, MgCl2 1, Mg-ATP 1, HEPES 10, and pH was adjusted to 7.2 with KOH and various concentrations of CaCl2 and EGTA were added to obtain calculated pCa=7 (0.37 mM CaCl2 and 10 mM EGTA) or pCa=6.4 (0.7 mM CaCl2 and 1 mM EGTA). […]

Chain of SK3/KCa2.3 channel (Q9UGI6 whole entry): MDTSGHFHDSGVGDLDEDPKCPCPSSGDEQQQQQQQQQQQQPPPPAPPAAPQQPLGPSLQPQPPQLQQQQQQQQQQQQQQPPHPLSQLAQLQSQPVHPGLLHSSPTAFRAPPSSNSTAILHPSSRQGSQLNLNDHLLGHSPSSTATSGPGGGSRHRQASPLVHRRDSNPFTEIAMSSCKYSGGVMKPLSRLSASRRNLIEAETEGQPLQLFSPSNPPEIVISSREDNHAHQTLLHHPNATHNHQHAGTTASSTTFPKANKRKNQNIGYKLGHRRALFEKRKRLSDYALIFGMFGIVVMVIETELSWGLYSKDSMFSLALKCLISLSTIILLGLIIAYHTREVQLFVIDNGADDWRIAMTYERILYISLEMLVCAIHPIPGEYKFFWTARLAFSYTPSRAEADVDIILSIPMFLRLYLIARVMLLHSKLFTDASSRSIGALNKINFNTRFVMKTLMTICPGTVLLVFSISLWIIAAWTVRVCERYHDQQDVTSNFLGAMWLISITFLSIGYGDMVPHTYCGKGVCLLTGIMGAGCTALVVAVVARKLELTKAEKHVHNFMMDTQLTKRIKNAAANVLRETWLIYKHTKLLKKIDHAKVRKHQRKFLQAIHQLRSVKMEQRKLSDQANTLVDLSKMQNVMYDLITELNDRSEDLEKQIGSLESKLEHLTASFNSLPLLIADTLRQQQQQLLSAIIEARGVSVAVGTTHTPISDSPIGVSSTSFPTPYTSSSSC

“hexadecyloxy-2-O-methyl-sn-glycerol-lactose [JPH1701]” was tested, and the “Effect on cell migration of non-cancerous cells” value (MCF-10A [1]) was “did not affected”, the “Effect on cell viability of non-cancerous cells” value (MCF-10A [2]) was “did not affected” and the “Effect on migration ability of cells not expressing SK3” value (MDA-MB-435s shSK3) was “does not affect”. The “Effect on endogenous HEK potassium current” value [3] was “not significantly affected”, the “Inhibition of 125I-apamin binding” value (SKCa channel) was “does not inhibit” and the Toxicity (MDA-MB-435s; Table 2, viability of MDA-MB-435s) was “No at 10 μM”. For the same substance, the “Effect on cell viability” value (MDA-MB-435s; at 10 nM to 1 μM, FIG. 6B) was “no effect on cell viability”, the “Effect on MDA-MB-435s proliferation” value (MDA-MB-435s; in vitro) was “no effect” and the IC50 (MDA-MB-435s; read-out: Cytotoxicity IC50, Table 1) was > 10 µM. For the same substance, the “Apamin-sensitive current after treatment” value (SK3/KCa2.3 channel; 1 μM for 24 h, FIG. 7B) was “totally abolished” and the “Apamin-sensitive current in MDA-MB-435s” value (SK3/KCa2.3 channel; wild-type cells, residual current abolished by apamin) was 0.071 ± 0.215 pA/pF.
